Columns and labels:
Format in all cases: biochemical
MKK4 = biological target: T1, MKK4 (Homo sapiens, UniProt P45985); experiment: 33PanQinase enzyme assay, MKK4; conditions: assay 'IC50'; read-out: Potency MKK4 (IC50)
T1 construct: purchased ProQinase GmbH, Freiburg, Germany (33PanQinase Assay Service)
T1 sequence (P45985 1-399): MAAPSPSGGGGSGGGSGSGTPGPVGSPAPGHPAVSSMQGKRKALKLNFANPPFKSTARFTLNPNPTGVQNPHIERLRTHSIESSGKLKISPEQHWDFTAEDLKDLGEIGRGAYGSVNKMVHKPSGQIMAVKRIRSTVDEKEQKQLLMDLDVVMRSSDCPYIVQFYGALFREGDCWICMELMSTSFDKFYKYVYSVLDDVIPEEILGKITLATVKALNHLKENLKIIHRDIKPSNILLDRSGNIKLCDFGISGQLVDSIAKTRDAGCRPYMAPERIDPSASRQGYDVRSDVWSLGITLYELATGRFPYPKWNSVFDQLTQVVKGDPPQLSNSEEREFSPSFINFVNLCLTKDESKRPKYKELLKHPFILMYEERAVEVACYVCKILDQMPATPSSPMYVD
Procedure, shortened: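 Inhibition measured as 33Pi transfer to substrate after a 60-min, 30 °C reaction, acid-stopped and scintillation-counted.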

BRaf = biological target: T2, BRaf (Homo sapiens, UniProt P15056); experiment: 33PanQinase enzyme assay, BRaf; conditions: ratio IC50(BRaf)/IC50(MKK4)
T2 construct: purchased ProQinase GmbH, Freiburg, Germany (33PanQinase Assay Service)
Procedure, shortened: (§1)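 33Pi incorporation, read by microplate scintillation counting, measured kinase activity after 60 min at 30 °C. Reactions were quenched with 2% (v/v) H3PO4 and washed with 0.9% NaCl. IC50 derived by least-squares fitting; single doses reported as % residual activity.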

JNK1 = JNK1 (Homo sapiens, UniProt P45983); experiment: 33PanQinase enzyme assay, JNK1; parameters: purchased ProQinase GmbH, Freiburg, Germany (33PanQinase Assay Service); conditions: ratio IC50(JNK1)/IC50(MKK4)
Procedure, shortened: as §1

MKK7 = biological target: T3, MKK7 (Homo sapiens, UniProt O14733); experiment: 33PanQinase enzyme assay, MKK7; parameters: purchased ProQinase GmbH, Freiburg, Germany (33PanQinase Assay Service); conditions: ratio IC50(MKK7)/IC50(MKK4)
T3 sequence (O14733 1-419): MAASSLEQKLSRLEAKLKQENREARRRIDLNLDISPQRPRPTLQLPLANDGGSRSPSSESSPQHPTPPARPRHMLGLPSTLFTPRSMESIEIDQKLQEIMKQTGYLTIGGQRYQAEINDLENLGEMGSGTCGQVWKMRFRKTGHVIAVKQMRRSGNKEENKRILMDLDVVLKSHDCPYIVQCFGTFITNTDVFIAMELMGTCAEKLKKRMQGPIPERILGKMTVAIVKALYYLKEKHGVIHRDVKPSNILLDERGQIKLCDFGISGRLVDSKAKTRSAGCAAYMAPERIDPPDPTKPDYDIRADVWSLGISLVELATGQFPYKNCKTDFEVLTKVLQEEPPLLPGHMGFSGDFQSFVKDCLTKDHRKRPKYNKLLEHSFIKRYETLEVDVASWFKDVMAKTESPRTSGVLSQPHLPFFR
Procedure, shortened: as §1

T2 sequence (P15056 whole entry, species assumed): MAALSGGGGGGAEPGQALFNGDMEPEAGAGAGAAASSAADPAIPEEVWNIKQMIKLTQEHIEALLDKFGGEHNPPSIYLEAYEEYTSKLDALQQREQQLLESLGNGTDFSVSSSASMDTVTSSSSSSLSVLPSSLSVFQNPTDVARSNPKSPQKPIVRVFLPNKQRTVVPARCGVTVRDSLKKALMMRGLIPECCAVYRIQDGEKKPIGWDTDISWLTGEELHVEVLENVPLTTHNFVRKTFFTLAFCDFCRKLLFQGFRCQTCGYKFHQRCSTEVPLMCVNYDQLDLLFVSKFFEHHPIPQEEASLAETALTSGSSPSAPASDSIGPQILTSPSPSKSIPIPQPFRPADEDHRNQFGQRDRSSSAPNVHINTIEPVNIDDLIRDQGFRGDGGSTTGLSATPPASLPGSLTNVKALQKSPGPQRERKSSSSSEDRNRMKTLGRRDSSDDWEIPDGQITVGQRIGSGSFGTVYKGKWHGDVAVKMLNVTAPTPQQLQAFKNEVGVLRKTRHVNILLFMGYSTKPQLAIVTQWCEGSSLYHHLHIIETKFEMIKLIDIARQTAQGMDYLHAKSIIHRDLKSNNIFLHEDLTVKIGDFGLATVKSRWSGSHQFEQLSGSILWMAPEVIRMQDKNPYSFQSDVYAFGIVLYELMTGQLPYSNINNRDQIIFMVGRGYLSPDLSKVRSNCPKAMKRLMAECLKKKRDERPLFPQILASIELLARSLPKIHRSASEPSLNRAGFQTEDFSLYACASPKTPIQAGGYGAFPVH
JNK1, sequence (P45983 whole entry): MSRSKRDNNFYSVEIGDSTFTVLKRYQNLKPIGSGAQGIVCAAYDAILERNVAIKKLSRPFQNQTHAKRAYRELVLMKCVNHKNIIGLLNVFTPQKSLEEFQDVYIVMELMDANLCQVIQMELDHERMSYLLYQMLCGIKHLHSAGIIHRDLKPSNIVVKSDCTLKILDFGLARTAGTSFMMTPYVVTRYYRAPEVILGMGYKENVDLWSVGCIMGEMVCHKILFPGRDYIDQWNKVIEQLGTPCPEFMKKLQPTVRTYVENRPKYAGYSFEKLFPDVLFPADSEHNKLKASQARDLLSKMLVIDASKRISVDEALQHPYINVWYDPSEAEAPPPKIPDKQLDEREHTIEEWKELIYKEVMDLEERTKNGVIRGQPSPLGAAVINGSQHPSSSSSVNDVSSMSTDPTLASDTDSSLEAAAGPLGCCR

## Nc1c(F)ccc(C(=O)c2c[nH]c3ncc(-c4ccc(Cl)cc4)cc23)c1F [Example 212, (3-amino-2,4-difluorophenyl)(5-(4-chlorophenyl)-1H-pyrrolo[2,3-b]pyridin-3-yl)methanone]
MKK4
  IC50: 100 to 1000 nM
BRaf
  Selectivity Braf, IC50(off-target)/IC50(MKK4): + (10 ≥ IC50(off-target)/IC50(MKK4) > 3)
JNK1
  Selectivity JNK1, IC50(off-target)/IC50(MKK4): ◯ (3 ≥ IC50(off-target)/IC50(MKK4))
MKK7
  Selectivity IVIKK7, IC50(off-target)/IC50(MKK4): +++ (IC50(off-target)/IC50(MKK4) > 100)

## CCCS(=O)(=O)Nc1c(F)ccc(C(=O)c2c[nH]c3ncc(-c4cnc(NCCCOC)nc4)cc23)c1F [Example 192, N-(2,6-difluoro-3-(5-(2-((3-methoxypropyl)amino)pyrimidin-5-yl)-1H-pyrrolo[2,3-b]pyridine-3-carbonyl)phenyl)propane-1-sulfonamide]
MKK4
  IC50: 100 to 1000 nM
BRaf
  Selectivity Braf, IC50(off-target)/IC50(MKK4): +++ (IC50(off-target)/IC50(MKK4) > 100)
JNK1
  Selectivity JNK1, IC50(off-target)/IC50(MKK4): ++ (100 ≥ IC50(off-target)/IC50(MKK4) > 10)
MKK7
  Selectivity IVIKK7, IC50(off-target)/IC50(MKK4): +++ (IC50(off-target)/IC50(MKK4) > 100)

## CCCS(=O)(=O)Nc1ccc(F)c(C(=O)c2c[nH]c3ncc(-c4cscn4)cc23)c1F [Example 57]
MKK4
  IC50: 100 to 1000 nM
BRaf
  Selectivity Braf, IC50(off-target)/IC50(MKK4): ◯ (3 ≥ IC50(off-target)/IC50(MKK4))
JNK1
  Selectivity JNK1, IC50(off-target)/IC50(MKK4): ◯ (3 ≥ IC50(off-target)/IC50(MKK4))
MKK7
  Selectivity IVIKK7, IC50(off-target)/IC50(MKK4): +++ (IC50(off-target)/IC50(MKK4) > 100)

## CCCS(=O)(=O)Nc1c(F)ccc(C(=O)c2c[nH]c3ncc(C4CCC4)cc23)c1F [Example 239, N-(3-(5-cyclobutyl-1H-pyrrolo[2,3-b]pyridine-3-carbonyl)-2,6-difluorophenyl)propane-1-sulfonamide]
MKK4
  IC50: < 100 nM
BRaf
  Selectivity Braf, IC50(off-target)/IC50(MKK4): +++ (IC50(off-target)/IC50(MKK4) > 100)
JNK1
  Selectivity JNK1, IC50(off-target)/IC50(MKK4): ++ (100 ≥ IC50(off-target)/IC50(MKK4) > 10)
MKK7
  Selectivity IVIKK7, IC50(off-target)/IC50(MKK4): +++ (IC50(off-target)/IC50(MKK4) > 100)

## CCCS(=O)(=O)Nc1ccc(F)c(C(=O)c2c[nH]c3ncc(-c4cncnc4)cc23)c1F [Example 91, N-(2,4-difluoro-3-(5-(pyrimidin-5-yl)-1H-pyrrolo[2,3-b]pyridine-3-carbonyl)phenyl)propane-1-sulfonamide]
MKK4
  IC50: 1000 to 10000 nM
BRaf
  Selectivity Braf, IC50(off-target)/IC50(MKK4): ◯ (3 ≥ IC50(off-target)/IC50(MKK4))
JNK1
  Selectivity JNK1, IC50(off-target)/IC50(MKK4): ◯ (3 ≥ IC50(off-target)/IC50(MKK4))
MKK7
  Selectivity IVIKK7, IC50(off-target)/IC50(MKK4): ++ (100 ≥ IC50(off-target)/IC50(MKK4) > 10)

## CCCS(=O)(=O)Nc1ccc(F)c(C(=O)c2c[nH]c3ncc(N4CCC(O)CC4)cc23)c1F [Example 136, N-(2,4-difluoro-3-(5-(4-hydroxypiperidin-1-yl)-1H-pyrrolo[2,3-b]pyridine-3-carbonyl)phenyl)propane-1-sulfonamide]
MKK4
  IC50: 1000 to 10000 nM
BRaf
  Selectivity Braf, IC50(off-target)/IC50(MKK4): ◯ (3 ≥ IC50(off-target)/IC50(MKK4))
JNK1
  Selectivity JNK1, IC50(off-target)/IC50(MKK4): ◯ (3 ≥ IC50(off-target)/IC50(MKK4))
MKK7
  Selectivity IVIKK7, IC50(off-target)/IC50(MKK4): ++ (100 ≥ IC50(off-target)/IC50(MKK4) > 10)

## CCCS(=O)(=O)Nc1c(F)ccc(C(=O)c2c[nH]c3ncc(-c4ccc(S(C)(=N)=O)nc4)cc23)c1F (centres unmarked) [Example 164, N-(2,6-difluoro-3-(5-(6-(S-methylsulfonimidoyl)pyridin-3-yl)-1H-pyrrolo[2,3-b]pyridine-3-carbonyl)phenyl)propane-1-sulfonamide]
MKK4
  IC50: < 100 nM
BRaf
  Selectivity Braf, IC50(off-target)/IC50(MKK4): ++ (100 ≥ IC50(off-target)/IC50(MKK4) > 10)
JNK1
  Selectivity JNK1, IC50(off-target)/IC50(MKK4): ++ (100 ≥ IC50(off-target)/IC50(MKK4) > 10)
MKK7
  Selectivity IVIKK7, IC50(off-target)/IC50(MKK4): +++ (IC50(off-target)/IC50(MKK4) > 100)

## CCCS(=O)(=O)Nc1c(F)ccc(C(=O)c2c[nH]c3ncc(-c4cnc(NCCO)nc4)cc23)c1F [Example 201, N-(2,6-difluoro-3-(5-(2-((2-hydroxyethyl)amino)pyrimidin-5-yl)-1H-pyrrolo[2,3-b]pyridine-3-carbonyl)phenyl)propane-1-sulfonamide]
MKK4
  IC50: < 100 nM
BRaf
  Selectivity Braf, IC50(off-target)/IC50(MKK4): +++ (IC50(off-target)/IC50(MKK4) > 100)
JNK1
  Selectivity JNK1, IC50(off-target)/IC50(MKK4): +++ (IC50(off-target)/IC50(MKK4) > 100)
MKK7
  Selectivity IVIKK7, IC50(off-target)/IC50(MKK4): +++ (IC50(off-target)/IC50(MKK4) > 100)

## CCCS(=O)(=O)Nc1c(F)ccc(C(=O)c2c[nH]c3ncc(-c4cnc(N5CC(O)C5)nc4)cc23)c1F [Example 205, N-(2,6-difluoro-3-(5-(2-(3-hydroxyazetidin-1-yl)pyrimidin-5-yl)-1H-pyrrolo[2,3-b]pyridine-3-carbonyl)phenyl)propane-1-sulfonamide]
MKK4
  IC50: 100 to 1000 nM
BRaf
  Selectivity Braf, IC50(off-target)/IC50(MKK4): ++ (100 ≥ IC50(off-target)/IC50(MKK4) > 10)
JNK1
  Selectivity JNK1, IC50(off-target)/IC50(MKK4): ++ (100 ≥ IC50(off-target)/IC50(MKK4) > 10)
MKK7
  Selectivity IVIKK7, IC50(off-target)/IC50(MKK4): +++ (IC50(off-target)/IC50(MKK4) > 100)

## CS(=O)(=O)Nc1c(F)ccc(C(=O)c2c[nH]c3ncc(-c4ccc(Cl)cc4)cc23)c1F [Example 149, N-(3-(5-(4-chlorophenyl)-1H-pyrrolo[2,3-b]pyridine-3-carbonyl)-2,6-difluorophenyl)methanesulfonamide]
MKK4
  IC50: 100 to 1000 nM
BRaf
  Selectivity Braf, IC50(off-target)/IC50(MKK4): ++ (100 ≥ IC50(off-target)/IC50(MKK4) > 10)
JNK1
  Selectivity JNK1, IC50(off-target)/IC50(MKK4): ++ (100 ≥ IC50(off-target)/IC50(MKK4) > 10)
MKK7
  Selectivity IVIKK7, IC50(off-target)/IC50(MKK4): +++ (IC50(off-target)/IC50(MKK4) > 100)

## CCCS(=O)(=O)Nc1c(F)ccc(C(=O)c2c[nH]c3ncc(-c4cnc(N5CCN(CCO)CC5)nc4)cc23)c1F [Example 198, N-(2,6-difluoro-3-(5-(2-(4-(2-hydroxyethyl)piperazin-1-yl)pyrimidin-5-yl)-1H-pyrrolo[2,3-b]pyridine-3-carbonyl)phenyl)propane-1-sulfonamide]
MKK4
  IC50: 100 to 1000 nM
BRaf
  Selectivity Braf, IC50(off-target)/IC50(MKK4): ++ (100 ≥ IC50(off-target)/IC50(MKK4) > 10)
JNK1
  Selectivity JNK1, IC50(off-target)/IC50(MKK4): ++ (100 ≥ IC50(off-target)/IC50(MKK4) > 10)
MKK7
  Selectivity IVIKK7, IC50(off-target)/IC50(MKK4): +++ (IC50(off-target)/IC50(MKK4) > 100)

## CCCS(=O)(=O)Nc1ccc(F)c(C(=O)c2c[nH]c3ncc(-c4ccc(S(C)(=O)=O)cc4)cc23)c1F [Example 54]
MKK4
  IC50: 100 to 1000 nM
BRaf
  Selectivity Braf, IC50(off-target)/IC50(MKK4): ◯ (3 ≥ IC50(off-target)/IC50(MKK4))
JNK1
  Selectivity JNK1, IC50(off-target)/IC50(MKK4): ◯ (3 ≥ IC50(off-target)/IC50(MKK4))
MKK7
  Selectivity IVIKK7, IC50(off-target)/IC50(MKK4): +++ (IC50(off-target)/IC50(MKK4) > 100)

## CCCS(=O)(=O)Nc1c(F)ccc(C(=O)c2c[nH]c3ncc(-c4cnc(N5CCNCC5)nc4)cc23)c1F [Example 185, N-(2,6-difluoro-3-(5-(2-(piperazin-1-yl)pyrimidin-5-yl)-1H-pyrrolo[2,3-b]pyridine-3-carbonyl)phenyl)propane-1-sulfonamide]
MKK4
  IC50: 100 to 1000 nM
BRaf
  Selectivity Braf, IC50(off-target)/IC50(MKK4): + (10 ≥ IC50(off-target)/IC50(MKK4) > 3)
JNK1
  Selectivity JNK1, IC50(off-target)/IC50(MKK4): ++ (100 ≥ IC50(off-target)/IC50(MKK4) > 10)
MKK7
  Selectivity IVIKK7, IC50(off-target)/IC50(MKK4): +++ (IC50(off-target)/IC50(MKK4) > 100)

## CCCS(=O)(=O)Nc1ccc(F)c(C(=O)c2c[nH]c3ncc(-c4ncccn4)cc23)c1F [Example 90, N-(2,4-difluoro-3-(5-(pyrimidin-2-yl)-1H-pyrrolo[2,3-b]pyridine-3-carbonyl)phenyl)propane-1-sulfonamide]
MKK4
  IC50: 1000 to 10000 nM
BRaf
  Selectivity Braf, IC50(off-target)/IC50(MKK4): ◯ (3 ≥ IC50(off-target)/IC50(MKK4))
JNK1
  Selectivity JNK1, IC50(off-target)/IC50(MKK4): ◯ (3 ≥ IC50(off-target)/IC50(MKK4))
MKK7
  Selectivity IVIKK7, IC50(off-target)/IC50(MKK4): ++ (100 ≥ IC50(off-target)/IC50(MKK4) > 10)
